The results in this text go back to ChEMBL document CHEMBL1128541 (J Med Chem, 1995).

Structures are written as SMILES. Where only a bound is given, the exact number is not on record here.

A word on the IC50: it is the concentration at which inhibition is half-maximal. Higher therefore signals lower potency. Usually ED50 stands for the dose that gives a 50% effect, or the effect in half of the subjects. High values mean a need for a large dose, low ones an effect at a small dose.

One test deals with Phosphodiesterase 3 (Homo sapiens, UniProt Q14432+Q13370). In words: Inhibition of human platelet Phosphodiesterase 3.
The target of a further test is Cyclooxygenase (Homo sapiens, UniProt P35354+P23219). The experiment in a line: Inhibitory activity against Prostaglandin G/H synthase. Type of test: protein assay.
The target in test [1] is T1, cGMP-dependent 3',5'-cyclic phosphodiesterase (Rattus norvegicus, UniProt Q01062).
T1 sequence (Q01062 whole entry): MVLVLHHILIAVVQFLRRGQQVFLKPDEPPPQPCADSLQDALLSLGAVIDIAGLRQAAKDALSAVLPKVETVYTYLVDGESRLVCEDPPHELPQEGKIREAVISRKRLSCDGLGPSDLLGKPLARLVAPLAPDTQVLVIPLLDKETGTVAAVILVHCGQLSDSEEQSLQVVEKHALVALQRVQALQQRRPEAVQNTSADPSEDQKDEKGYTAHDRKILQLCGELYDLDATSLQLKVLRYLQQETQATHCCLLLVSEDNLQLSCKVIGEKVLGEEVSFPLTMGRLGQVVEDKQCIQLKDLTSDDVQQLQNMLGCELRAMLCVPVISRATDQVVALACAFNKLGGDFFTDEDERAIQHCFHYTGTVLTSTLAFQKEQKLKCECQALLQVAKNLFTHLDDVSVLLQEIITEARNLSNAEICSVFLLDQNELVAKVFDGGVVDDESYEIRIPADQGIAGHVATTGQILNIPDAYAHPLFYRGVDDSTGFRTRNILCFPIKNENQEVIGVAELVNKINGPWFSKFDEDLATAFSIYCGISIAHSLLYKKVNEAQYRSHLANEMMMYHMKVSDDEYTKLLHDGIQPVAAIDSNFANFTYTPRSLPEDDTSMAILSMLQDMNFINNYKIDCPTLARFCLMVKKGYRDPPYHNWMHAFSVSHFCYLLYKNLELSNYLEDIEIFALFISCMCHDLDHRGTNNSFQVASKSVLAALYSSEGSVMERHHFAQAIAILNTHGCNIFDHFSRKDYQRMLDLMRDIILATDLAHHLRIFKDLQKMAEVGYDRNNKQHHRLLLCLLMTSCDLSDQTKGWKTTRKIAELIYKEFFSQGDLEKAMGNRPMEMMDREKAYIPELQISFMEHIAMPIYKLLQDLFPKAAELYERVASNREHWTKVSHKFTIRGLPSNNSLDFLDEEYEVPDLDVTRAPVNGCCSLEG
In words: Inhibition of rat brain Phosphodiesterase 2.

In test [2] the target is cGMP-specific 3',5'-cyclic phosphodiesterase (Homo sapiens, UniProt O76074). The experiment in a line: Inhibitory activity against phosphodiesterase 5 from human platelets.
The target in a further test is Phosphodiesterase 1 (Bos taurus, UniProt Q01061+P14100). In words: Inhibition of bovine aorta Phosphodiesterase 1. Format: protein assay.
The target in another test is Phosphodiesterase 4 (Rattus norvegicus, UniProt P14270+P14646+P14644+P54748). In words: Inhibition of rat kidney Phosphodiesterase 4. Type of test: protein assay.
The species named for test [3] is Rattus norvegicus. In words: Ex vivo inhibition of Thromboxane B2 production in A-23,187-Induced Rat Whole Blood. Format: functional.
For test [4], the species on record is Rattus norvegicus. In words: In vitro inhibition of Thromboxane B2 production in A-23,187-Induced Rat Whole Blood. Format: functional.
For a further test, the target named is T2, Thromboxane-A synthase (Homo sapiens, UniProt P24557).
T2 sequence (P24557 whole entry): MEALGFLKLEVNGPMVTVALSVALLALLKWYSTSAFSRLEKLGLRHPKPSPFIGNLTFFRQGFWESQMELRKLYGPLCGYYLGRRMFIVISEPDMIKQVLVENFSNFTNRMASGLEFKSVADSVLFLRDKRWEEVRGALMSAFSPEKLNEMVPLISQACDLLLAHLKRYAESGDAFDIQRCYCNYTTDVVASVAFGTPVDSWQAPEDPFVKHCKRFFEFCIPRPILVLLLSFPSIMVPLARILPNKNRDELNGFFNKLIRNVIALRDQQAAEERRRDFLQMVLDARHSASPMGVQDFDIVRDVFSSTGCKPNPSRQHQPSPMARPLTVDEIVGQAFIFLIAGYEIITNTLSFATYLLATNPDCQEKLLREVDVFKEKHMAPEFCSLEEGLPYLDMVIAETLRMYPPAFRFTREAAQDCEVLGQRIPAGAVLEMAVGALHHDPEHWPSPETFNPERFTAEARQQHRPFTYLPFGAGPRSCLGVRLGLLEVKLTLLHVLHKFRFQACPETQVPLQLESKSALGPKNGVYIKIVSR
The experiment in a line: In vitro inhibition of Thromboxane A2 synthase in human platelet.

Regarding `c1ccc(CNc2nc(-n3ccnc3)nc3ccccc23)cc1`, the half-maximal inhibitory concentration (IC50) against Phosphodiesterase 3 came to 50 µM; at Cyclooxygenase it was 51 µM; in [1] it was 25 µM; in [2], 0.26 µM; against Phosphodiesterase 1, 14 µM; at Phosphodiesterase 4 it was 3.1 µM. The half-maximal inhibitory concentration (IC50) in the test listed under Rattus norvegicus [4] worked out at 1.1 µM; at Thromboxane-A synthase it was 0.22 µM. Also, in the test filed under Rattus norvegicus [3], the ED50 is 5.7 mg/kg. In turn, `Brc1ccc2nc(-n3ccnc3)nc(NCc3ccccc3)c2c1` had a half-inhibitory concentration (IC50) in [2] of 0.0023 µM. `CN1CCN(c2nc(NCc3ccccc3)c3ccccc3n2)CC1` had a concentration for half-maximal inhibition (IC50) in test [2] of 22 µM. `c1cncc(CNc2nc(-c3cccnc3)nc3ccccc23)c1`: it took 2.8 µM to reach half-maximal inhibition in test [2] (IC50). Compared with the last molecule, the IC50 is about 7.9-fold lower. Same read-out and setting: for `c1ccc(-c2nc(NCc3ccccn3)c3ccccc3n2)cc1` the value was 11 µM. On the same count and under the same terms, in the case of `c1ccc(-c2nc(NCc3cccnc3)c3ccccc3n2)cc1` it was 8.6 µM; in that of `Clc1ccc2nc(-c3cccnc3)nc(NCc3ccco3)c2c1`, 0.12 µM.

For the molecule `c1ccc(-c2nc(NC3CCCC3)c3ccccc3n2)cc1`, the IC50 in test [2] was determined as 2.4 µM. On to `Clc1ccc(CNc2nc(-c3ccccc3)nc3ccccc23)cc1`, for which the IC50 in test [2] turned out to be 0.74 µM. Still for that read-out and setting: in the case of `c1ccc(CNc2nc(-c3ccco3)nc3ccccc23)cc1` it was 2.5 µM; in that of `c1cncc(-c2nc(NCc3cccs3)c3ccccc3n2)c1`, 0.36 µM. Turning to `Cl.Cl.Clc1ccc2nc(-c3cccnc3)nc(NCc3ccccc3)c2c1`, the IC50 against Phosphodiesterase 3 is > 50 µM; in [1] it was > 50 µM; in test [2], 0.026 µM; against Phosphodiesterase 1, > 50 µM; against Phosphodiesterase 4 it was > 50 µM. `c1ccc(CCNc2nc(-n3ccnc3)nc3ccccc23)cc1` registered a concentration for half-maximal inhibition (IC50) in test [2] of 0.86 µM.

Consider `c1ccc(CNc2nc(-c3ccccc3)nc3ccccc23)cc1`, for which the IC50 was > 100 µM against Phosphodiesterase 3; 24 µM in test [1]; 0.32 µM in test [2]; 22.5 µM against Phosphodiesterase 1; 8.2 µM against Phosphodiesterase 4. The molecule `c1ccc(CCNc2nc(-c3cccnc3)nc3ccccc23)cc1` showed an IC50 in [2] of 0.54 µM. On the same count and under the same terms, in the case of `Fc1ccc2c(NCc3ccccc3)nc(-c3cccnc3)nc2c1` it was 0.48 µM. The same measure, in the same setting: for `Clc1ccccc1CNc1nc(-c2ccccc2)nc2ccccc12` the value was 0.8 µM; for `c1csc(CNc2nc(-n3ccnc3)nc3ccccc23)c1`, 0.21 µM; for `c1ccc(Nc2nc(-c3cccs3)nc3ccccc23)cc1`, 2.4 µM.

`CS(=O)(=O)c1ccc2nc(-n3ccnc3)nc(NCc3ccccc3)c2c1` showed an IC50 in test [2] of 0.11 µM. As for `Cl.Cl.O=[N+]([O-])c1ccc2nc(-c3cccnc3)nc(NCc3ccccc3)c2c1`, the half-inhibitory concentration (IC50) on Phosphodiesterase 3 is > 3 µM; in test [1], > 3 µM; in [2] it was 0.01 µM; on Phosphodiesterase 1 it was > 3 µM; against Phosphodiesterase 4, > 3 µM. As to `Clc1cccc(CNc2nc(-c3ccccc3)nc3ccccc23)c1`, the IC50 in test [2] is 0.8 µM. Same read-out and setting: for `Clc1nc(NCc2ccccc2)c2ccccc2n1` the value was 4.6 µM; for `COc1cccc(Nc2nc(-c3ccccc3)nc3ccccc23)c1`, 0.76 µM; for `COC(=O)c1ccc(Nc2nc(-c3ccccc3)nc3ccccc23)cc1`, 0.86 µM. `c1coc(CNc2nc(-n3ccnc3)nc3ccccc23)c1` returned an IC50 in test [2] of 0.63 µM. The molecule `Fc1ccc2nc(-c3cccnc3)nc(NCc3ccccc3)c2c1` registered an IC50 in test [2] of 0.165 µM. Compared with the last molecule, the IC50 is about 3.8-fold lower. As for `c1ccc(CNc2nc(-c3cccnc3)nc3ccccc23)cc1`, the 50% inhibitory concentration (IC50) was > 100 µM at Phosphodiesterase 3; 50 µM on Cyclooxygenase; 19 µM in [1]; 0.45 µM in test [2]; 21 µM on Phosphodiesterase 1; 9 µM against Phosphodiesterase 4. For the same molecule, the half-maximal inhibitory concentration (IC50) is > 10 µM in the test listed under Rattus norvegicus [4] and 5.8 µM on Thromboxane-A synthase. Also, the 50% effective dose (ED50) in the test filed under Rattus norvegicus [3] was > 30 mg/kg. Regarding `c1cncc(-c2nc(NCC3CCCO3)c3ccccc3n2)c1` (stereo not given), the midpoint of inhibition in [2], the IC50, lay at 5 µM. That is a single-digit micromolar value.

Turning to `c1ccc(CNc2nc(C3CCCCC3)nc3ccccc23)cc1`, in test [2], the IC50 worked out at 11 µM. On the same count and under the same terms, for `CCOC(=O)CCCNc1nc(-c2ccccc2)nc2ccccc12` the value was 4.3 µM; for `Clc1ccc(Nc2nc(-c3ccccc3)nc3ccccc23)cc1`, 2.15 µM. The same measure, in the same setting: in the case of `c1ccc(Nc2nc(-c3ccco3)nc3ccccc23)cc1` it was 2.3 µM; in that of `OCCCCCNc1nc(-c2ccccc2)nc2ccccc12`, 15 µM. Consider `O=[N+]([O-])c1cccc(Nc2nc(-c3ccccc3)nc3ccccc23)c1`, for which 0.42 µM corresponded to half-maximal inhibition in test [2] (IC50). Still for that read-out and setting: in the case of `c1ccc(COc2nc(-c3ccccc3)nc3ccccc23)cc1` it was 18.5 µM; in that of `c1ccc(-c2nc(NCC3CCCO3)c3ccccc3n2)cc1` (stereo not given), 8.8 µM; in that of `O=[N+]([O-])c1ccc2nc(-n3ccnc3)nc(NCc3ccccc3)c2c1`, 0.0026 µM.

`c1ccc(-c2nc(NCc3ccco3)c3ccccc3n2)cc1` had an IC50 in test [2] of 4.7 µM. Same read-out and setting: in the case of `c1ccc2c(NCC3CCCCC3)nc(-n3ccnc3)nc2c1` it was 0.23 µM; in that of `CN(Cc1ccccc1)c1nc(-c2ccccc2)nc2ccccc12`, 14 µM; in that of `Clc1cccc(Nc2nc(-c3ccccc3)nc3ccccc23)c1`, 1 µM.

Molecule `Clc1ccccc1Nc1nc(-c2ccccc2)nc2ccccc12` came in with an IC50 in test [2] of 5.5 µM. Still for that read-out and setting: for `COC(=O)c1cccc(Nc2nc(-c3ccccc3)nc3ccccc23)c1` the value was 0.19 µM. Same read-out and setting: for `COc1ccc2nc(-n3ccnc3)nc(NCc3ccco3)c2c1` the value was 0.072 µM; for `C(=C\c1nc(NCc2ccccc2)c2ccccc2n1)/c1ccccc1`, 1.3 µM. On the same count and under the same terms, in the case of `c1cncc(-c2nc(NCC3CC3)c3ccccc3n2)c1` it was 4.4 µM; in that of `c1ccc(CCNc2nc(-c3ccccc3)nc3ccccc23)cc1`, 1.9 µM. As to `CCCOc1ccccc1-c1nc2[nH]nnc2c(=O)[nH]1` [ZAPRINAST], the IC50 against Phosphodiesterase 3 worked out at 660 µM; in test [1], 100 µM; at Phosphodiesterase 1, 68 µM. As for `COc1ccc2nc(-n3ccnc3)nc(NCc3ccccc3)c2c1.Cl.Cl`, the IC50 is 2 µM against Phosphodiesterase 3; > 3 µM in test [1]; 0.016 µM in test [2]; 2.8 µM against Phosphodiesterase 1; 3.3 µM at Phosphodiesterase 4; 0.83 µM in the test filed under Rattus norvegicus [4]. On Thromboxane-A synthase, this molecule returned an IC50 of 2.5 µM. Also, in the test filed under Rattus norvegicus [3], the ED50 amounted to 2.6 mg/kg.

As for `CN(c1ccccc1)c1nc(-c2ccccc2)nc2ccccc12`, it took 20 µM to reach half-maximal inhibition in test [2] (IC50). On to `Cl.Cl.Clc1ccc2nc(-n3ccnc3)nc(NCc3ccccc3)c2c1`, for which the 50% inhibitory concentration (IC50) (at Phosphodiesterase 3; in [1]; against Phosphodiesterase 1; against Phosphodiesterase 4) was > 3 µM each time.

In turn, `c1ccc(-c2nc(Nc3cccnc3)c3ccccc3n2)cc1` yielded a 50% inhibitory concentration (IC50) in test [2] of 13 µM.

Consider `c1ccc(CNc2nc(-c3cccs3)nc3ccccc23)cc1`, for which the IC50 against Phosphodiesterase 3 was > 100 µM; in [1], 21 µM; in test [2], 0.72 µM; on Phosphodiesterase 1, 13 µM; at Phosphodiesterase 4, 7.6 µM. The molecule `Cc1ccc2nc(-c3cccnc3)nc(NCc3ccccc3)c2c1` had a half-maximal inhibitory concentration (IC50) in test [2] of 0.105 µM. This counts as sub-micromolar. Still for that read-out and setting: for `CSc1ccc2nc(-n3ccnc3)nc(NCc3ccccc3)c2c1` the value was 0.014 µM.
